From article PMC8880385 (Pharmaceuticals, 2022)

Assays:
O. volvulus pre-adult L5 [1] = test: Ov L5 viability by endpoint MTT assay; assay type: cell-based, Onchocerca volvulus; settings: 1 µM
Experimental: Briefly, Ov L3 larvae were cultured to the pre-adult/L5 stage in vitro as described by Voronin et al., 2019 [45]. Once larvae reached the L5 stage (after at least 70 days in culture), 8–10 Ov L5 were moved to new transwell inserts in a 24-well plate containing 0.5 mL Ov L4-CMS media seeded with a 3 × 10^4/well Human Umbilical Vein Endothelial Cells (HUVEC) monolayer. Duplicate wells were treated with 1 and/or 10 µM of compound. Ov L5 were exposed to compounds for 14 days (exchanged 50% of media with fresh compound every two days) and then cultured with new media without compound, exchanging 50% of media every 2–3 days, up to day 36. Control Ov L5 were treated with 0.05% DMSO. […] Motility was assessed visually and ranked on a 0–100% scale every 2–3 days over the course of the assay. At the end of the motility assay, Ov L5 viability was measured by 3-(4,5-dimethylthiazol-2-yl)-2,5-diphenyltetrazolium bromide (MTT) assay. Ov L5 were incubated with 0.1% MTT in PBS at 37 °C for 1 h then visually inspected for blue coloration indicating MTT reduction. Worms were considered dead if <50% of the worm was stained blue, and worms were considered alive if >50% of the worm was stained blue.

O. ochengi adult males = test: O. ochengi adult male motility assay; assay type: cell-based; settings: Onchocerca ochengi, 120 h; read-out: O. ochengi Adult Males Inhibition of Motility Day 5 IC50
From the text: (§1) As humans are the only hosts for O. volvulus which are unavailable for screening, drug discovery relies on the surrogate filarial parasites Brugia spp. and cattle Onchocerca spp. Prioritized compounds from the Brugia worm screens were further tested with female and male adult O. ochengi as well as O. ochengi and L. loa mf.
(§2) For these assays, O. ochengi adults were extracted from the subcutaneous nodules of infected cow skins purchased from the local slaughterhouse (Douala, Littoral Region, Cameroon) and incubated in 4 mL complete culture media comprised of RPMI-1640 (Sigma-Aldrich), 5% newborn calf serum, 200 units/mL penicillin, 200 μg/mL streptomycin and 2.5 μg/mL amphotericin B (Sigma-Aldrich) in 12-well plates overnight to validate sterility prior to the assays. Four to eight O. ochengi adult masses were treated individually the following day with a serial dilution of each compound, and controls were treated with 1% DMSO. While in culture, the male worms normally egress from the nodules into the surrounding media and thus can be monitored in parallel for motility. The O. ochengi adult masses were incubated at 37 °C with 5% CO2 for the duration of the assay. Male motility within each well was visually scored every day and over 5 days after compound addition, and female viability within the nodules was assessed by MTT after 7 days as previously described. The O. ochengi adult masses containing female worms were individually placed in wells of a 48-well plate with 0.5 mL of 0.5 mg/mL MTT in PBS and incubated at 37 °C for 30 min. Female viability was visually rated by the degree of formazan production (live worms have blue coloration) in the female worm within the treated nodule versus control worm masses. […] Prism 4.0 for Windows was used to calculate IC50s.

O. ochengi adult females = test: O. ochengi adult female viability (MTT) assay; assay type: cell-based; settings: Onchocerca ochengi, 168 h; Day 7, MTT; read-out: O. ochengi Adult Females Inhibition of Survival Day 7 IC50
From the text: as §1
as §2, with “min.” for “min. Female viability was visually rated by the degree of formazan production (live worms have blue coloration) in the female worm within the treated nodule versus control worm masses.”

O. ochengi mf = test: O. ochengi microfilariae motility assay; assay type: cell-based, Onchocerca ochengi; settings: Onchocerca ochengi, 120 h; 10 µM, Day 5
Experimental: To assess the effects of the compounds on O. ochengi mf, the mf were harvested from infected cow skin and cultured (10–15 mf per well) in 100 µL media in 96-well plates with a confluent feeder layer of monkey kidney epithelial cells (MK2) as previously described. […] All compounds were also counter-screened with L. loa mf collected from infected individuals with approval from the University of Buea (IRB approval # 964-19). Mf were separated from blood cells using a Percoll gradient as previously described and set up for assays (10–15 mf per well).

[2] = Gerbil liver microsome stability assay; assay type: in vitro ADME
Experimental: Microsomal stability was tested using 1 µM of each test compound in a 96-well plate containing 0.5 mg/mL gerbil liver microsomes, 1 mM NADPH and/or UDPGA with alamethicin in a buffer of 100 mM potassium phosphate with 3 mM magnesium chloride at pH 7.4. Verapamil was used as a positive control. Reactions were incubated at 37 °C, and 100% acetonitrile with 0.1% formic acid was added at 0, 15, 30 and 60 min timepoints to stop the reaction. Samples were then separated over a Waters Atlantis T3 dC18 reverse phase HPLC column with 0.1% formic acid in water and 0.1% formic acid in acetonitrile. Samples were analyzed using an AB Sciex API 4000 LC–MS/MS.

O. volvulus pre-adult L5 [3] = test: O. volvulus pre-adult (Ov L5) motility assay; assay type: cell-based; settings: Onchocerca volvulus, 504 h; on Day 21; read-out: O. volvulus L5 Inhibition of Motility IC50

Cc1ccc2c(ccc(/C=C/c3c(C)nn(-c4ccccc4)c3C)[n+]2C)c1.[I-] [Analog 06, 2-[(E)-2-(3,5-dimethyl-1-phenyl-1H-pyrazol-4-yl)ethenyl]-1,6-dimethylquinolin-1-ium iodide]
O. volvulus L5 % inhibition of viability Day 37 (MTT assay) (O. volvulus pre-adult L5 [1]): 88%
IC50 (O. ochengi adult males): 2750 nM
IC50 (O. ochengi adult females): 2990 nM
inhibition at 10 µM (O. ochengi mf): 46%
CLint ([2]; gerbil liver microsomes): 0.933 µL/min/mg Protein
half-life at 1 µM ([2]; pH 7.4, 1 µM compound, 0.5 mg/mL microsomes, read-out: Gerbil Liver Microsome T1/2): 24.7 h
IC50 (O. volvulus pre-adult L5 [3]): 220 nM
